We go through three compounds from patent EP0248231B1, “Pharmacologically active peptides” (Brantl, Victor, Dr. med., Dipl.-Chem., priority 1986, dated 1993).

Residues, ends and D or L forms follow the SMILES beside them.

The assay has as its system plexus myentericus/ Längsmuskel-Präparat des Meerschweinchenileums (GPI). The assay can be described thus: Inhibition of electrically induced contraction of the myenteric plexus/longitudinal muscle preparation of guinea pig ileum (GPI). As to conditions: means of 4-6 determinations; standard deviation below 14 %; read-out: GPI: Konzentration, die notwendig ist, die elektrisch induzierte Kontraktion des Meerschweinchen-Darm-Präparates (GPI) um 50 % zu hemmen (IC₅₀-Wert). Type of assay: cell-based. The source says: Die beiden Substanzen zeigen spezifische opiatartige Wirkungen am elektrisch stimulierten plexus myentericus/ Längsmuskel-Präparat des Meerschweinchenileums (GPI), Methode: Schulz und Goldstein, J. Pharmacol. Exptl. Ther. 183, 400, 1972. Die Ergebnisse sind in Tabelle 1 aufgeführt.
Tabelle 1. Opiatartige Wirkungen zweier erfindungsgemäßer Peptide; die Zahlen geben diejenige Konzentration (µM) an, die notwendig ist, die elektrisch induzierte Kontraktion des Meerschweinchen-Darm-Präparates (GPI) um 50 % zu hemmen (IC₅₀-Wert). Die Zahlen sind Mittelwerte aus 4-6 Bestimmungen; die Standardabweichung von den Mittelwerten ist kleiner als 14 %. Die Hemmungen des GPI sind mit dem spezifischen Opioid-Antagonisten Naloxon aufhebbar bzw. bei Vorbehandlung blockierbar. (Endkonzentration des Naloxons im Organbad 0,5 µM).
Consider “H-YPWTQ-OH [Tyr-Pro-Trp-Thr-Gln, H-Tyr-Pro-Trp-Thr-Gln-OH]”, for which the IC50 turned out to be 46.1 µM.
Regarding `C[C@@H](O)[C@H](NC(=O)[C@H](Cc1c[nH]c2ccccc12)NC(=O)[C@@H]1CCCN1C(=O)[C@@H](N)Cc1ccc(O)cc1)C(=O)O` [Tyr-Pro-Trp-Thr, H-Tyr-Pro-Trp-Thr-OH] (H-YPWT-OH), the IC50 is 45.2 µM.
Next, `Oc1ccc2c3c1O[C@H]1[C@@H](O)C=C[C@H]4[C@@H](C2)NCC[C@@]341` [Normorphin]: 0.1 µM.
